# Laboratory results from patent publication US8039586B1, “Cerebral organic anion transporter and its gene” (J-Pharma Co., Ltd., priority 1998, dated 2011).
# Like-named read-outs stand apart in the source and are kept apart here.
# Assays:
# Assay type in all cases: cell-based
# rat OAT3 (rk1411) = target: T1, rat OAT3 (rk1411) (Rattus norvegicus, UniProt Q9R1U7); assay: Inhibition of 3H-estrone sulfate uptake in oocyte injected with rk1411 cRNA
# T1 construct: cRNA (RNA complementary to cDNA) was prepared in vitro from the plasmid carrying the clone (rk1411); expressed in transfected cells; host or cells: Xenopus oocytes injected with rk1411 cRNA
# T1 sequence (Q9R1U7 1-536): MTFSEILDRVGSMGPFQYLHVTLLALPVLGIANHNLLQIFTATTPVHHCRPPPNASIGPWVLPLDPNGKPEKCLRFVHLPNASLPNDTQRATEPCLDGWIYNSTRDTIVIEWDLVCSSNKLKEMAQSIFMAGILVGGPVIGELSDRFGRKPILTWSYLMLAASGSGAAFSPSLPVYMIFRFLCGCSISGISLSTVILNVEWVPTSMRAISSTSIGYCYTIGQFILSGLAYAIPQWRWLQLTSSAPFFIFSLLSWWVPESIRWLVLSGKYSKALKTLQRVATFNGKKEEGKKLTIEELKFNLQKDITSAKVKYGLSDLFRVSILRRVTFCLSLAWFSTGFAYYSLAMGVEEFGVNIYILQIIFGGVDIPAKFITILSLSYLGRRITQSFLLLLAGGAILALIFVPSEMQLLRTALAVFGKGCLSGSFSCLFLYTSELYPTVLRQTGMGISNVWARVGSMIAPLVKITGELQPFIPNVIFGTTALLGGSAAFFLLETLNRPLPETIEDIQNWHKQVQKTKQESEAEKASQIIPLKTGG
# hOAT3 [1] = target: T2, hOAT3 (Homo sapiens, UniProt Q8TCC7, D366H/K271E); assay: Inhibition of 3H-estrone sulfate uptake in oocyte injected with hOAT3 cRNA; set-up: cRNA (RNA complementary to cDNA) was prepared in vitro from the plasmid comprising the hOAT3 recovered above; expressed in transfected cells; host or cells: Xenopus oocytes injected with hOAT3 cRNA; conditions: 50 nM 3H-estrone sulfate; non-radiolabeled compound at 500 μM or the concentration shown in FIG. 19; one hour
# T2 sequence (Q8TCC7 1-542 K271E/D366H): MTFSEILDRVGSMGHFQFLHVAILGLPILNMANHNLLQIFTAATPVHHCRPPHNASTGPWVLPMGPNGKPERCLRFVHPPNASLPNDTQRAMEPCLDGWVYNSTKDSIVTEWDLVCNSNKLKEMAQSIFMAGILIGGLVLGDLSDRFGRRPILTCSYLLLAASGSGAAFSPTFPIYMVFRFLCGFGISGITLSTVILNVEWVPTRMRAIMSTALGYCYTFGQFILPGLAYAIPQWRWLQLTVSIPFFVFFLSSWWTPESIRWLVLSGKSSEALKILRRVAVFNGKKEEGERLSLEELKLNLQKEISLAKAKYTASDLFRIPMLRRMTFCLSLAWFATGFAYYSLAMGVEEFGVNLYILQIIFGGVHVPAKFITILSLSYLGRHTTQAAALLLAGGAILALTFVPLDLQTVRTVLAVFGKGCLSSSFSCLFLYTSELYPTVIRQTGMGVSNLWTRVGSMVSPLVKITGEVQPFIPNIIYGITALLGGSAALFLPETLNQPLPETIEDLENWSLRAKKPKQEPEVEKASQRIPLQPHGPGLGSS
# hOAT3 [2] = target: T3, hOAT3 (Homo sapiens, UniProt Q8TCC7); assay: Uptake of radiolabeled compounds by Xenopus oocyte injected with hOAT3 cRNA
# T3 construct: cRNA (RNA complementary to cDNA) was prepared in vitro from the plasmid comprising the hOAT3 recovered above; expressed in transfected cells; host or cells: Xenopus oocytes injected with hOAT3 cRNA
# T3 sequence (Q8TCC7 1-542 K271E/D366H): T2 sequence (Q8TCC7 1-542 K271E/D366H)
# Description: By using T7 RNA polymerase, cRNA (RNA complementary to cDNA) was prepared in vitro from the plasmid comprising the hOAT3 recovered above by the method by Sekine, et al. (see Sekine, T., et al. J. Biol. Chem., Vol. 272, pp. 18526-9, 1997).
# According to the already reported method of Sekine, et al. (Sekine, T., et al. J. Biol. Chem., Vol. 272, pp. 18526-9, 1997), the resulting hOAT3 cRNA was injected in the Xenopus oocyte; the oocyte was subjected to an uptake test with various radiolabeled organic anions and organic cations. The control oocyte cell (oocyte cell with no injection of hOAT3 cRNA) and the oocyte cell injected with hOAT3 cRNA were cultured in a buffer containing the following radiolabels for one hour, to assay the uptake of the radiolabels into the oocytes.
# In each figure, open column expresses the case of the control oocyte used; and closed column expresses the case of the oocyte injected with hOAT3 cRNA.
# [3] = 1 mM unlabeled compound, Xenopus oocyte, FIG. 3
# [4] = substrate 10 μM, one hour, versus control oocyte
# [5] = substrate 50 nM, one hour, versus control oocyte
compound,measurement,setting,value
O=C1OC(c2ccc(O)c(S(=O)(=O)O)c2)(c2ccc(O)c(S(=O)(=O)O)c2)c2c(Br)c(Br)c(Br)c(Br)c21 [bromosulfophthalein],inhibition of 3H-estrone sulfate transport with rk1411,rat OAT3 (rk1411); [3],significantly inhibited
same,inhibition of the transport of 3H-estrone sulfate with hOAT3,hOAT3 [1],significantly inhibited
CCCN(CCC)S(=O)(=O)c1ccc(C(=O)O)cc1 [probenecid],inhibition of 3H-estrone sulfate transport with rk1411,rat OAT3 (rk1411); [3],significantly inhibited
same,inhibition of the transport of 3H-estrone sulfate with hOAT3,hOAT3 [1],significantly inhibited
CC1(C)C(/C=C/C=C/C=C/C=C2\N(CCCCS(=O)(=O)O)c3ccc4ccccc4c3C2(C)C)=[N+](CCCCS(=O)(=O)[O-])c2ccc3ccccc3c21 [indocyanine green],inhibition of 3H-estrone sulfate transport with rk1411,rat OAT3 (rk1411); [3],significantly inhibited
C[C@H](CCC(=O)NCCS(=O)(=O)O)[C@H]1CC[C@H]2[C@@H]3[C@H](O)C[C@@H]4C[C@H](O)CC[C@]4(C)[C@H]3C[C@H](O)[C@]12C [taurocholic acid],inhibition of 3H-estrone sulfate transport with rk1411,rat OAT3 (rk1411),significantly inhibited
same,inhibition of the transport of 3H-estrone sulfate with hOAT3,hOAT3 [1],significantly inhibited
same,uptake of radiolabeled compound by oocyte with hOAT3 expression,hOAT3 [2]; [4],takes up
COc1ccc(CCN(C)CCCC(C#N)(c2ccc(OC)c(OC)c2)C(C)C)cc1OC (centres unmarked) [berapamil],inhibition of 3H-estrone sulfate transport with rk1411,rat OAT3 (rk1411); [3],never exerted any such inhibitory action
O=C(O)c1ccccc1O [salicylic acid],uptake of radiolabeled compound by oocyte with hOAT3 expression,"hOAT3 [2]; substrate 1 μM, one hour, versus control oocyte",takes up
CN/C(=N/CCSCc1nc[nH]c1C)NC#N [cimetidine],uptake of radiolabeled compound by oocyte with hOAT3 expression,"hOAT3 [2]; substrate 150 nM, one hour, versus control oocyte",takes up
CN(Cc1cnc2nc(N)nc(N)c2n1)c1ccc(C(=O)N[C@@H](CCC(=O)O)C(=O)O)cc1 [methotrexate],inhibition of the transport of 3H-estrone sulfate with hOAT3,hOAT3 [1],significantly inhibited
same,uptake of radiolabeled compound by oocyte with hOAT3 expression,"hOAT3 [2]; substrate 100 nM, one hour, versus control oocyte",takes up
CCCCC[C@H](O)/C=C/[C@H]1[C@H](O)CC(=O)[C@@H]1C/C=C\CCCC(=O)O [prostaglandin E2],uptake of radiolabeled compound by oocyte with hOAT3 expression,"hOAT3 [2]; substrate 1 nM, one hour, versus control oocyte",takes up
N=C(N)N [guanidine],inhibition of 3H-estrone sulfate transport with rk1411,rat OAT3 (rk1411); [3],never exerted any such inhibitory action
COc1ccc2c(c1)c(CC(=O)O)c(C)n2C(=O)c1ccc(Cl)cc1 [indomethacin],inhibition of the transport of 3H-estrone sulfate with hOAT3,hOAT3 [1],significantly inhibited
same,uptake of radiolabeled compound by oocyte with hOAT3 expression,hOAT3 [2]; [4],takes up
CC1(C)S[C@@H]2[C@H](NC(=O)Cc3ccccc3)C(=O)N2[C@H]1C(=O)O [benzylpenicillin],inhibition of 3H-estrone sulfate transport with rk1411,rat OAT3 (rk1411); [3],significantly inhibited
same,inhibition of the transport of 3H-estrone sulfate with hOAT3,hOAT3 [1],significantly inhibited
dehydroepiandrosterone sulfate,uptake of radiolabeled compound by oocyte with hOAT3 expression,hOAT3 [2]; [5],takes up
"CC[N+](CC)(CC)CC [TEA, tetraethylammonium]",inhibition of the transport of 3H-estrone sulfate with hOAT3,hOAT3 [1],never exerted any inhibitory action
same,uptake of radiolabeled compound by oocyte with hOAT3 expression,hOAT3 [2],never transported
O=C(O)CCCC(=O)O [glutaric acid],inhibition of the transport of 3H-estrone sulfate with hOAT3,hOAT3 [1],significantly inhibited
same,uptake of radiolabeled compound by oocyte with hOAT3 expression,hOAT3 [2]; [4],takes up
C[C@]12CC[C@@H]3c4ccc(O)cc4CC[C@H]3[C@@H]1CC[C@@H]2O[C@@H]1O[C@H](C(=O)O)[C@@H](O)[C@H](O)[C@H]1O [estradiol glucuronide],uptake of radiolabeled compound by oocyte with hOAT3 expression,hOAT3 [2]; [5],takes up
CCCCNc1cc(C(=O)O)cc(S(N)(=O)=O)c1Oc1ccccc1 [bumetanide],inhibition of 3H-estrone sulfate transport with rk1411,rat OAT3 (rk1411); [3],significantly inhibited
C[C@H](CCC(=O)O)[C@H]1CC[C@H]2[C@@H]3[C@H](O)C[C@@H]4C[C@H](O)CC[C@]4(C)[C@H]3C[C@H](O)[C@]12C [cholic acid],inhibition of 3H-estrone sulfate transport with rk1411,rat OAT3 (rk1411); [3],significantly inhibited
same,uptake of radiolabeled compound by oocyte with hOAT3 expression,hOAT3 [2]; [4],takes up
CN1C(C(=O)Nc2ccccn2)=C(O)c2ccccc2S1(=O)=O [pyroxicam],inhibition of 3H-estrone sulfate transport with rk1411,rat OAT3 (rk1411); [3],significantly inhibited
